pEC50, pIC50, pKi: −log10 of the molar value.

We go through 20 molecules from ChEMBL document CHEMBL3714714, “Hepatocyte nuclear factor 4alpha modulator compounds” (2005).

In assay [1] the target is T1, Hepatocyte nuclear factor 4-alpha (Homo sapiens, UniProt P41235).
T1 sequence (P41235 whole entry): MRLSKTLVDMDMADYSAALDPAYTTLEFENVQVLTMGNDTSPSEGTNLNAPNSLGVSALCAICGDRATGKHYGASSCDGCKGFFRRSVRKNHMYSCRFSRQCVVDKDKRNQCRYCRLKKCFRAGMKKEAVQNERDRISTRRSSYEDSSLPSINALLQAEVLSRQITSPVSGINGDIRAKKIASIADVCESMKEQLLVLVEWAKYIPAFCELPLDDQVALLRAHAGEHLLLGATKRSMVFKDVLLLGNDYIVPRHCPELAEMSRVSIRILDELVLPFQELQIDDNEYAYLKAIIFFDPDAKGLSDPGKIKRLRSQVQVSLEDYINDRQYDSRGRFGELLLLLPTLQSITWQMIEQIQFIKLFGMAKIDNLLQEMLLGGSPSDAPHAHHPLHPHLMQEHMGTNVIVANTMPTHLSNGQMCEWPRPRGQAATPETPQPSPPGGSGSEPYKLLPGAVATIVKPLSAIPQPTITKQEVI
Nature of the assay: Displacement of [3H]methyl4-[5,6,7,8-tetrahydro-5,5,8,8-tetramethyl-3-ethyloxy-2-naphthalenyl]benzoyl benzoate from HNF4alpha (unknown origin) by radioligand binding assay.

For assay [2], the target named is T2, Hepatocyte nuclear factor 4-alpha (Rattus norvegicus) (UniProt P22449).
T2 sequence (whole entry): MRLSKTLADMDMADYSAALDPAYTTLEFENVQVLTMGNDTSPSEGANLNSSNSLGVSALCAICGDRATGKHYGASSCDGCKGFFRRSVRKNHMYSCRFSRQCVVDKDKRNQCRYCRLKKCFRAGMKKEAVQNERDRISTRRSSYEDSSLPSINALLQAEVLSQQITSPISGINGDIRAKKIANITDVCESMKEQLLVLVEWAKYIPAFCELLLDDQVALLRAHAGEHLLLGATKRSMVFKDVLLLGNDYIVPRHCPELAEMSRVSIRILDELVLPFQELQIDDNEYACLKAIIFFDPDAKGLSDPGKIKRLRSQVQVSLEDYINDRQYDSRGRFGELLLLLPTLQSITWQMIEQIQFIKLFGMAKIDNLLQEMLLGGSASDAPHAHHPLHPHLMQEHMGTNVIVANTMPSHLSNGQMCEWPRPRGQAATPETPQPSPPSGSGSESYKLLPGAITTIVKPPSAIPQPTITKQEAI
The experiment in a line: Antagonist activity against rat HNF4alpha1 expressed in African green monkey CV1 cells assessed as reduction in endogenous agoinst-induced luciferase expression incubated for 24 hrs by firefly luciferase reporter gene assay relative to control. Conditions: CV-1. It counts as functional, cell-based.

In assay [3] the target is T3, Retinoic acid receptor RXR-alpha (Homo sapiens, UniProt P19793).
T3 sequence (P19793 whole entry): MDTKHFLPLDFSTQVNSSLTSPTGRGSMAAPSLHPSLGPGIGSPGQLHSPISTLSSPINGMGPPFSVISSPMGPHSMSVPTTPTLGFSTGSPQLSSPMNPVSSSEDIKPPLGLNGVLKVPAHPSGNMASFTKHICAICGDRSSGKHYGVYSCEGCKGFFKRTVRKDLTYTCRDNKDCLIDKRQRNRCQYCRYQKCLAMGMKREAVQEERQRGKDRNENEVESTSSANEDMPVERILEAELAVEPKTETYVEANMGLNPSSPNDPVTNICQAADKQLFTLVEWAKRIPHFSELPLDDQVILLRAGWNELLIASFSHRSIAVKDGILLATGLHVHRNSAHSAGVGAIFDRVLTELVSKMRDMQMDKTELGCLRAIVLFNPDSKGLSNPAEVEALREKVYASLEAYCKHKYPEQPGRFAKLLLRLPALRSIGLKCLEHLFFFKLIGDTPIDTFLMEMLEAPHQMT
Nature of the assay: Displacement of [3H]9-cis-retinoic acid from RXRalpha (unknown origin) by radioligand binding assay.

In assay [4] the target is T4, Hepatocyte nuclear factor 4-alpha (Rattus norvegicus, UniProt P22449).
T4 sequence (P22449 whole entry): T2 sequence (whole entry)
Nature of the assay: Antagonist activity against rat HNF4alpha1 expressed in African green monkey CV1 cells assessed as reduction in endogenous agoinst-induced luciferase expression incubated for 24 hrs by firefly luciferase reporter gene assay. It counts as functional, cell-based, CV-1.

Assay [5] deals with T2, Hepatocyte nuclear factor 4-alpha (Rattus norvegicus). Nature of the assay: Agonist activity at rat HNF4alpha1 expressed in African green monkey CV1 cells incubated for 24 hrs by firefly luciferase reporter gene assay relative to LG0100695. It counts as functional, cell-based. Particulars: CV-1.
Assay [6] concerns the target T4, Hepatocyte nuclear factor 4-alpha. The experiment in a line: Agonist activity at rat HNF4alpha1 expressed in African green monkey CV1 cells incubated for 24 hrs by firefly luciferase reporter gene assay. It counts as functional, cell-based, CV-1.

`CCCCCCO/N=C(\c1ccc(C(=O)O)cc1)c1cc2c(cc1OCC)C(C)(C)CCC2(C)C`: the pKi in assay [1] was 6.49; in assay [3], 5.72. Besides, the Efficacy in assay [2] was found to be 120%. The pIC50 in assay [4] was 9.00.
`COc1c(C(=O)c2ccc(C(=O)O)cc2)cc2c(c1C)N(C)CCC2(C)C` displayed an Efficacy in assay [5] of 42%. The molecule also gave a pEC50 in assay [6] of 5.55. Also, the pKi was 5.34 in assay [1] and less than 4.52 in assay [3].
The like results for `Cc1cc2c(c(O)c1C(=O)c1ccc(C(=O)O)cc1)C(C)(C)CCC2(C)C` were, in that order, 103%, 5.58, 6.15 and less than 4.52.
`CCOc1cc2c(cc1C(=O)c1ccc(C(=O)C(=O)O)cc1)C(C)(C)CCC2(C)C` came in with an Efficacy in assay [5] of 95%. The pEC50 in assay [6] was 5.94. The pKi in assay [1] is 6.44; in assay [3], less than 5.00.
As to `CCOc1cc2c(cc1C(=O)c1ccc(C(=O)O)cc1)C(C)(C)CCO2`, in assay [5], the Efficacy amounted to 68%. The same molecule gave a pEC50 in assay [6] of 5.65. The pKi in assay [1] was 6.14; in assay [3], 5.52.
Turning to `Cc1c(C(=O)c2ccc(C(=O)O)cc2)cc2c(c1[N+](=O)[O-])C(C)(C)CCC2(C)C`, the Efficacy in assay [5] came to 43%. For the same molecule, the pEC50 in assay [6] was 5.65. Moreover, the pKi in assay [1] was 6.78; in assay [3] it was less than 5.30.
Consider `Cc1c(C(=O)c2ccc(C(=O)O)cc2)cc2c(c1[N+](=O)[O-])OCCC2(C)C`, for which the Efficacy in assay [5] was 88%. Further, the pEC50 in assay [6] is 5.53. For the same molecule, the values for the pKi in assay [1] and in assay [3] were 5.66 and less than 4.52, respectively.
With `CCOc1cc2c(cc1C(=O)c1ccc(C(=O)O)cc1)C(C)(C)CCC2(C)C`, the Efficacy in assay [5] is 100%. Also, the pEC50 in assay [6] was 6.58. For the same molecule, the pKi is 6.96 in assay [1] and 6.08 in assay [3].
Consider `CC1(C)CCC(C)(C)c2cc(/C(=N\Nc3ccccc3)c3ccc(C(=O)O)cc3)ccc21`, for which the pKi was 6.29 in assay [1] and less than 5.00 in assay [3]. Also, the Efficacy in assay [2] amounted to 100%. Besides, the pIC50 in assay [4] is 6.99.
Consider `Cc1cc2c(cc1C(NCc1cccc(F)c1)c1ccc(C(=O)O)cc1)C(C)(C)CCC2(C)C` (stereo unspecified), for which the results for the pKi in assay [1] and in assay [3] were 5.85 and 5.19, respectively.
As to `Cc1cc2c(cc1C(OCc1ccccc1F)c1ccc(C(=O)O)cc1)C(C)(C)CCC2(C)C` (stereo unspecified), the pKi was 6.24 in assay [1] and 5.28 in assay [3]. Moreover, the Efficacy in assay [2] was determined as 106%. For the same molecule, in assay [4], the pIC50 was 8.40.
`Cc1cc2c(cc1C(OCc1ccc(SC(F)(F)F)cc1)c1ccc(C(=O)O)cc1)C(C)(C)CCC2(C)C` (stereo unspecified): the results for the pKi in assay [1] and in assay [3] were 5.92 and 5.52, respectively.
In the case of `CCOc1cc2c(cc1/C(=N/OCc1cccc(F)c1F)c1ccc(C(=O)O)cc1)C(C)(C)CCC2(C)C`, the pKi is 6.02 in assay [1] and less than 4.52 in assay [3]. In addition, in assay [2], the Efficacy came out at 118%. Further, the pIC50 in assay [4] was 7.46.
In the case of `Cc1ccc(S(=O)(=O)Nc2c(C)c(Cc3ccc(C(=O)O)cc3)cc3c2C(C)(C)CCC3(C)C)cc1`, the pKi in assay [1] is 5.28; in assay [3], less than 4.52. Besides, in assay [2], the Efficacy is 121%. In addition, the negative-log IC50 (pIC50) in assay [4] is 7.66.
For `Cc1ccc(C)c(N/N=C(\c2ccc(C(=O)O)cc2)c2cc3c(cc2C)C(C)(C)CCC3(C)C)c1`, the results for the pKi in assay [1] and in assay [3] were 6.00 and less than 4.52, respectively. Besides, the Efficacy in assay [2] amounted to 103%. Besides, the pIC50 in assay [4] was 7.72.
As for `CCOc1cc2c(cc1/C(=N/Nc1cc(F)ccc1F)c1ccc(C(=O)O)cc1)C(C)(C)CCC2(C)C`, the pKi in assay [1] is 6.67; in assay [3] it was 5.52. The Efficacy in assay [2] is 110%. Further, the pIC50 in assay [4] is 9.00.
The like results for `CCOc1cc2c(cc1/C(=N/OCCC(C)C)c1ccc(C(=O)O)cc1)C(C)(C)CCC2(C)C` were, in that order, 6.61, 5.34, 119% and 8.52.
With `CCCCOC(c1ccc(C(=O)O)cc1)c1cc2c(cc1OCC)C(C)(C)CCC2(C)C` (stereo unspecified), the pKi is 6.47 in assay [1] and 5.57 in assay [3]. In addition, the Efficacy in assay [2] amounted to 108%. For the same molecule, the pIC50 in assay [4] was 8.40.
For `CC1(C)CCC(C)(C)c2c1cc(C(=O)c1ccc(C(=O)O)cc1)c(OCC(F)F)c2[N+](=O)[O-]`, the Efficacy in assay [5] came out at 57%. The same molecule had a pEC50 in assay [6] of 6.23. For the same molecule, the pKi was 6.79 in assay [1] and less than 5.00 in assay [3].
In assay [5], `CC1(C)CCC(C)(C)c2cc(C(=O)c3ccc(C(=O)O)cc3)c(OCC(F)(F)F)cc21` yielded an Efficacy of 33%. In assay [6], this molecule showed a pEC50 of 5.66. In addition, the results for the pKi in assay [1] and in assay [3] were 7.02 and 5.82, respectively.
